This is an account of results in US20090170886A1 (Pfizer Inc, priority 2005, published 2009).

Changes are numbered by the printed parent chain. Where two headings read alike, the source gives them in different places. Some results are limits rather than exact numbers.

Experiment [1] has as its target T1, hAR (human androgen receptor, baculovirus/Sf9 generated extracts) (Homo sapiens, UniProt P10275).
T1 construct: made in house; host or cells: baculovirus/Sf9 insect cells (crude extract)
T1 sequence (P10275 1-920): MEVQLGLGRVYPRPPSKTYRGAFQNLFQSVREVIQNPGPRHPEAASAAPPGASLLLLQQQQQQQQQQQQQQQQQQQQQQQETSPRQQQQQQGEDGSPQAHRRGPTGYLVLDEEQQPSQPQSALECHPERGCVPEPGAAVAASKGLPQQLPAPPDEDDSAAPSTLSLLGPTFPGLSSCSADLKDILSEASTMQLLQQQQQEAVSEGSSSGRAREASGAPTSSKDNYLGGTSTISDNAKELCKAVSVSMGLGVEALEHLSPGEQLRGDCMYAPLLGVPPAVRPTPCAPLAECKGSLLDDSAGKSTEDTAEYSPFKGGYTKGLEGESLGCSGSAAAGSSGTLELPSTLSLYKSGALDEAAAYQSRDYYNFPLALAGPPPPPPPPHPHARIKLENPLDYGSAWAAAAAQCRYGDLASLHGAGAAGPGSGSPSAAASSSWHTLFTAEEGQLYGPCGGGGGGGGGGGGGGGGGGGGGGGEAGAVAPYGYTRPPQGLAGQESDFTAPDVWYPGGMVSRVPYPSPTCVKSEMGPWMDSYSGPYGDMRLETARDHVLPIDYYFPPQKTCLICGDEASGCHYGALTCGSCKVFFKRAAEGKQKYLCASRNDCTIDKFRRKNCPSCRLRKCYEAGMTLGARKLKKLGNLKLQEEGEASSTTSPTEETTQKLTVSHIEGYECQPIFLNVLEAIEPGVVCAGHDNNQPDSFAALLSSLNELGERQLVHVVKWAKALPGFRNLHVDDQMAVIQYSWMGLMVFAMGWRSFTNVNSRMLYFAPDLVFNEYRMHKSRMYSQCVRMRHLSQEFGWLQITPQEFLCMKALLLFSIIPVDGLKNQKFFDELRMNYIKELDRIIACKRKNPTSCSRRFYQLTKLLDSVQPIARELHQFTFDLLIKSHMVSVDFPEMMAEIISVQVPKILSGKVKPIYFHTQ
The experiment is described as follows: AR Binding Assay (competitive binding with 3H-DHT tracer). Conditions: 1 nM 3H-DHT, one hour at 4° C., mean of multiple tests. On the procedure: The compounds of Formula I have affinity for the androgen receptor. […] The description below describes how the assay was carried out.
Competitive binding analysis was performed on baculovirus/Sf9 generated hAR extracts in the presence or absence of different concentrations of test agent and a fixed concentration of ^3H-dihydrotestosterone (^3H-DHT) as tracer. This binding assay method is a modification of a protocol previously described (Liao S., et. al., J. Steroid Biochem., 20:11-17, 1984). Briefly, progressively decreasing concentrations of compounds are incubated in the presence of hAR extract (Chang et al., P.N.A.S., Vol. 89, pp. 5546-5950, 1992), hydroxylapatite, and 1 nM ^3H-DHT for one hour at 4° C. Subsequently, the binding reactions are washed three times to completely remove excess unbound ^3H-DHT. hAR bound ^3H-DHT levels are determined in the presence of compounds (i.e. competitive binding) and compared to levels bound when no competitor is present (i.e. maximum binding). Compound binding affinity to the hAR is expressed as the concentration of compound at which one half of the maximum binding is inhibited. Table II below provides the results that were obtained for selected compounds (reported data is the mean of multiple tests as shown below).

The target in experiment [2] is T2, androgen receptor in MDA-MB453-MMTV clone 54-19 cells (Homo sapiens, UniProt P10275).
T2 sequence (P10275 1-920 Q868H): T1 sequence (P10275 1-920) with Q868H
Description: AR Antagonist Cell Assay (MMTV-luciferase reporter, DHT-induced). In kind it is cell-based. Conditions: MDA-MB453-MMTV clone 54-19, 100 pM DHT, 17 hr; mean of multiple tests. On the procedure:
The compounds ability to antagonize the effects of androgen on the androgen receptor were determined in a whole cell assay as described immediately below.
Cell line: MDA-MB453-MMTV clone 54-19. This cell line is a stable transfected cell line with MDA-MB453 cell background (a human breast tumor cell line expressing androgen receptor). A MMTV minimal promoter containing ARE was first cloned in front of a firefly luciferase reporter gene. Then the cascade was cloned into transfection vector pUV120puro. Electroporation method was used for transfecting MDA-MB-453 cell. Puromycin resistant stable cell line was selected.
Culture medium: DMEM (high glucose, Gibco cat #: 11960-044), 10% FBS, and 1% L-glutamine
Plating medium: DMEM (phenol red free), 10% charcoal treated HyClone serum, 1% L-glutamine
Assay medium: DMEM (phenol red free), 1% charcoal treated HyClone serum, 1% L-glutamine, and 1% penicillin/streptomycin
3× luciferase buffer: 2% beta-mercaptoethanol, 0.6% ATP, 0.0135% luciferine in cell lysis buffer
Cells are maintained in culture medium, splitting cells when they reach 80-90% confluence. To test compounds, 10,000 cells/well are plated to opaque 96 cell culture plate in 100 ul/well plating medium, culture for overnight at 37° C. in cell culture incubator. Carefully remove plating medium, then add 80 ul/well of pre-warmed assay medium, add 10 ul/well testing compound (final concentration at) 1000 nM, 200 nM, 40 nM, 8 nM, 1.6 nM, and 0.32 nM), incubate at 37° C. for 30 minutes. Add 10 ul/well freshly prepared DHT (final concentration at 100 pM) to each well, incubate at 37° C. for 17 hr (overnight). Add 50 ul/well 3× luciferase buffer, incubate at room temperature for 5 minutes, then count on Luminometer. The fold induction over background by 100 pM DHT in the absence of testing compounds is standardized as 100% and experimental result is expressed as percentage of inhibition by testing compounds.
The results are reported as the mean of multiple tests as described below (the numbers of tests are indicated in the footnote). ND denotes that the compound was not tested.
For orientation: Reporter assays use an easily measured gene product as a stand-in for the process of interest.

The mark [3] stands for this setting: hAR extract, read-out: AR Binding IC50.

A word on the IC50: it is the concentration needed to halve the response being measured. With `CC(Oc1ccc(C#N)c(C(F)(F)F)c1)c1cccnc1` (single isomer, unassigned) [Example 34, 4-(1-Pyridin-3-yl-ethoxy)-2-trifluoromethyl-benzonitrile], the IC50 in experiment [1] (AR Binding IC50, hAR extract) was 0.141 µM; in experiment [2] it was 0.094 µM.
For `COCCOCOc1cncc(C(CC(C)C)Oc2ccc(C#N)c(C(F)(F)F)c2)c1` (centres unmarked) [Example 93, 4-{1-[5-(2-Methoxy-ethoxymethoxy)-pyridin-3-yl]-3-methyl-butoxy}-2-trifluoromethyl-benzonitrile] the same measures were 0.098 µM and 0.202 µM.
The corresponding values for `N#Cc1ccc(CCOc2ccc(C#N)c(C(F)(F)F)c2)cc1` [Example 75, 4-[2-(4-Cyano-phenyl)-ethoxy]-2-trifluoromethyl-benzonitrile] are 0.343 µM and 0.055 µM.
The corresponding values for `CCC(Oc1ccc(C#N)c(C(F)(F)F)c1)c1cncc(O)c1` (centres unmarked) [Example 94, 4-[1-(5-Hydroxy-pyridin-3-yl)-propoxy]-2-trifluoromethyl-benzonitrile] are 0.075 µM and 0.202 µM.
Take `Cc1cccc(C(C)Oc2ccc(C#N)c(C(F)(F)F)c2)c1` (centres unmarked) [Example 28, 4-(1-m-Tolyl-ethoxy)-2-trifluoromethyl-benzonitrile]: the IC50 in experiment [1] (AR Binding IC50, hAR extract) was found to be 0.05 µM; in experiment [2] it was 0.573 µM.
For `CC(Oc1ccc(C#N)c(C(F)(F)F)c1)c1cccc(OC2CCCCO2)c1` (centres unmarked) [Example 7, 4-{1-[3-(Tetrahydro-2H-pyran-2-yloxy)phenyl]ethoxy}-2-(trifluoromethyl)benzonitrile], the IC50 in experiment [1] (setting [3]) was found to be 0.383 µM.
As to `CC(C)(Oc1ccc(C#N)cc1Cl)c1ccccc1` [Example 37, 3-Chloro-4-(1-methyl-1-phenyl-ethoxy)-benzonitrile], the IC50 in experiment [1] (setting [3]) is 0.184 µM; in experiment [2], above 1 µM.
Regarding `Cc1cccc(COc2ccc(C#N)c(C(F)(F)F)c2)c1` [Example 52, 4-(3-Methyl-benzyloxy)-2-trifluoromethyl-benzonitrile], in experiment [1] (setting [3]), the IC50 was 0.302 µM.
On the same count and under the same terms, next, `CCC(Oc1ccc(C#N)c(C(F)(F)F)c1)c1cccc(C)n1` (centres unmarked) [Example 87, 4-[1-(6-Methyl-pyridin-2-yl)-propoxy]-2-trifluoromethyl-benzonitrile]: 0.483 µM.
With `CC(Oc1ccc(C#N)c(C(F)(F)F)c1)c1cccc(C#N)c1` (centres unmarked) [Example 30, 4-[1-(3-Cyano-phenyl)-ethoxy]-2-trifluoromethyl-benzonitrile], the 50% inhibitory concentration (IC50) in experiment [1] (AR Binding IC50, hAR extract) amounted to 0.022 µM; in experiment [2] it was 0.007 µM.
`CC(Oc1ccc(C#N)c(C(F)(F)F)c1)c1ccc(Cl)cc1` (centres unmarked) [Example 23, 4-[1-(4-Chloro-phenyl)-ethoxy]-2-trifluoromethyl-benzonitrile]: in experiment [1] (setting [3]), the IC50 was found to be 0.307 µM.
In turn, `COc1ccccc1COc1ccc(C#N)c(C(F)(F)F)c1` [Example 45, 4-(2-Methoxy-benzyloxy)-2-trifluoromethyl-benzonitrile] registered an IC50 in experiment [2] above 1 µM.
Regarding `COc1ccc(CCOc2ccc(C#N)c(C(F)(F)F)c2)cc1` [Example 76, 4-[2-(4-Methoxy-phenyl)-ethoxy]-2-trifluoromethyl-benzonitrile], the IC50 in experiment [1] (setting [3]) is 0.281 µM.
`COc1cc(OC(C)Cc2ccccc2)ccc1C#N` (centres unmarked) [Example 71A, 2-Methoxy-4-(1-methyl-2-phenyl-ethoxy)-benzonitrile]: the IC50 in experiment [1] (setting [3]) amounted to 0.306 µM.
On the same count and under the same terms, next, `Cc1ccccc1C(C)Oc1ccc(C#N)c(C(F)(F)F)c1` (centres unmarked) [Example 27, 4-(1-o-Tolyl-ethoxy)-2-trifluoromethyl-benzonitrile]: 0.439 µM.
Consider `C[C@H](Oc1ccc(C#N)cc1Cl)c1ccccc1` [Example 39, (S)-3-Chloro-4-(1-phenyl-ethoxy)-benzonitrile], for which the IC50 in experiment [1] (AR Binding IC50, hAR extract) amounted to 0.41 µM.
Take `CC(Oc1ccc(C#N)c(C(F)(F)F)c1)c1cccc(C(F)(F)F)c1` (centres unmarked) [Example 32, 2-Trifluoromethyl-4-[1-(3-trifluoromethyl-phenyl)-ethoxy]-benzonitrile]: the IC50 in experiment [1] (setting [3]) came out at 0.214 µM.
Still for that read-out and setting: next, `Cc1cccc(C)c1C(C)Oc1ccc(C#N)c(Cl)c1` (centres unmarked) [Example 63, 2-Chloro-4-[1-(2,6-dimethyl-phenyl)-ethoxy]-benzonitrile]: 0.328 µM; `CCCC(Oc1ccc(C#N)c(C(F)(F)F)c1)c1cccc(C)n1` (centres unmarked) [Example 86, 4-[1-(6-Methyl-pyridin-2-yl)-butoxy]-2-trifluoromethyl-benzonitrile]: 0.33 µM.
For the compound `CC(Cc1ccccc1)(Oc1ccc(C#N)cc1Cl)c1ccccc1` (centres unmarked) [Example 42, 3-Chloro-4-(1-methyl-1,2-diphenyl-ethoxy)-benzonitrile], in experiment [1] (setting [3]), the IC50 is 0.377 µM.
On the same count and under the same terms, the result for `CCC(C)(Oc1ccc(C#N)c(C(F)(F)F)c1)c1ccccc1` (centres unmarked) [Example 47, 4-(1-Methyl-1-phenyl-propoxy)-2-trifluoromethyl-benzonitrile] reads 0.461 µM.
In the case of `C[C@@H](Oc1ccc(C#N)cc1Cl)c1ccccc1` [Example 38, (R)-3-Chloro-4-(1-phenyl-ethoxy)-benzonitrile], in experiment [1] (AR Binding IC50, hAR extract), the IC50 turned out to be 0.281 µM.
